Like-named read-outs stand apart in the source and are kept apart here. Square brackets hold non-standard residues; d marks the D form. Peptide text beside a SMILES is read from it. * marks the point of attachment. X1 = CC(=O)N[C@H]1C(*)O[C@H](CO)[C@@H](O)[C@@H]1O Bounds are passed on as bounds.

The results in this text go back to US20230203095A1, “BIOLOGICAL PEPTIDE FOR TREATING LUNG DISEASES AND APPLICATION THEREOF” (SHANGHAI INSTITUTE OF PHARMACEUTICAL INDUSTRY CO., LTD., priority 2019, published 2023).

One series relates to serum IgE. The series is described as follows: Serum IgE level in OVA-induced allergic asthma model mice. The series is classed as in vivo, BALB/c mice. As to conditions: for Serum IgE level (OD450): days 19-28, n=10. As to the method: The first batch: mice were divided into groups, 10 mice in each group, namely: blank control group (normal saline), model group (OVA, 20 ug/mouse), SP peptide group (administered dose of 175 µg/kg body weight/day, 350 µg/kg body weight/day, respectively), SIPI-D00 peptide group (administered dose of 175 µg/kg body weight/day, 350 µg/kg body weight/day), and dexamethasone group (administered dose of 2 mg/kg body weight/day).
OVA for sensitization was dissolved in sterile PBS solution at a final concentration of 0.2 mg/mL, then an equal volume of aluminum hydroxide adjuvant was added. After shaking for 30 minutes, each mouse was intraperitoneally injected with 0.2 mL (20 µg OVA per mouse).
2% OVA solution was prepared in sterile PBS. The 2% OVA was nebulized with a nebulizer, and the mice were placed in the nebulizer inhalation box for 30 minutes per day.
According to the dosage, SP peptide and SIPI-D00 were dissolved in normal saline respectively, and administered by subcutaneous administration on the back according to the body weight of the animals.
Mice in the model group, SP peptide group, SIPI-D00 peptide group and dexamethasone group were sensitized by intraperitoneal injection of OVA (20 µg OVA/mice) on day 0, 7, and 14, and challenged by aerosol administration of OVA (once a day for 5 consecutive days) on day 21-25 to construct asthmatic model animals. Mice in the model group were given normal saline on days 21-28; mice in different doses of SP peptide group and SIPI-D00 peptide group were injected subcutaneously with different doses of SP and SIPI-D00 on days 19-28; mice in dexamethasone group were injected intraperitoneally with 2 mg/kg/day dexamethasone on days 21-28. At the same time, 10 mice in the blank control group were fed normally from day 0 to day 28 without any treatment, and were given normal saline as a blank control.
After 28 days, blood was collected from the inner canthus of the mouse, and the serum was collected, and the IgE level in the serum was measured with an ELISA kit. […]
At the same time, 10 mice in the blank control group were fed normally from day 0 to day 28 without any treatment, and were given normal saline as a blank control.

Series [1] is described as follows: Stability of each 7-peptide compound in rat whole blood. As to conditions: for stability in whole blood: compared with SP peptide; for recovery: read-out: Recovery rate (%) M±SD. The class given is in vitro ADME. How it is done: Preparation of the test product: SP and SIPI-D00 were dissolved and diluted with an appropriate amount of 50% acetonitrile water containing 0.1% formic acid to obtain a working solution with a concentration of 200 µg/mL.
• 1) Fresh rat whole blood was added to the EP tube, and shaken gently to mix well; • 2) The EP tube was pre-incubated in a 37° C. water bath for 5 minutes; • 3) Each compound was added to start the reaction and continued to incubate at 37° C.; • 4) 50 µL sample was taken from the sample tube at 0, 2 min, 5 min, 10 min, 30 min, and 60 min, respectively, into the stop tube, 50 µL of ice-cold 7% perchloric acid was added, and shaken to stop the reaction; • 5) Sample was centrifuged at 13000 r/min for 10 min, 75 µL supernatant was aspirated, 60 µL1.25% ammonia water was added and mixed well. After filtered with […] microporous membrane, 20 µL sample was taken for LC-MS/MS analysis.

Series [2] can be described thus: Plasma drug concentrations and pharmacokinetics after a single subcutaneous injection of SP peptide or SIPI-D00 peptide in SD rats. The class given is in vivo. As to the method:
Route: Single back subcutaneous injection;
Dosage of the drug: SP peptide and SIPI-D00 peptide were prepared into 3.33 mg/mL solution with normal saline, the dosage of SP peptide by back subcutaneous injection was 10 mg/kg body weight, and the dosage of SIPI-D00 peptide by back subcutaneous injection was 5 mg/kg body weight. […]

Setting [3] is: rat whole blood, 37° C., 1000 ng/mL, incubation time 0 min.
[4] abbreviates: rat whole blood, 37° C., 1000 ng/mL, incubation time 2 min.
Where [5] appears, read: rat whole blood, 37° C., 1000 ng/mL, incubation time 5 min.
Where [6] appears, read: rat whole blood, 37° C., 1000 ng/mL, incubation time 10 min.
Setting [7] is: rat whole blood, 37° C., 1000 ng/mL, incubation time 30 min.
[8] abbreviates: rat whole blood, 37° C., 1000 ng/mL, incubation time 60 min.

For the molecule `C[C@H](O)[C@@H](NC(=O)[C@@H](Cc1ccc(O)cc1)NC(=O)[C@H](NC(=O)[C@@H](CO)NC(=O)CN)[C@H](C)O)C(=O)N[C@H](CCC(N)=O)C(=O)NCC(=O)O` [SIPI-D00, GSTYTQG] (H-G[dS][dT][dY][dT][dQ]G-OH), the figures for the “Serum IgE level (OD450)” value in the series on serum IgE (175 ug/kg/day subcutaneous) and with serum IgE (350 ug/kg/day subcutaneous) were 0.421 ± 0.044 OD450 and 0.279 ± 0.036 OD450, respectively. The “IgE level in the serum (in words)” value in the series on serum IgE (compared with the model group and SP peptide group) is given as “significantly decreased”. Further, the “stability in whole blood” value in series [1] is given as “significantly higher than that of SP peptide”. The recovery in series [1] (setting [3]) was determined as 100%; in series [1] (setting [4]), 97.9 ± 7.4%; in series [1] (setting [5]), 101 ± 10.7%; in series [1] (setting [6]) it was 99.6 ± 1.3%; in series [1] (setting [7]) it was 97.9 ± 2.5%; in series [1] (setting [8]), 100%. Besides, in series [1] (setting [8]), the “Recovery rate (%) M±SD” value is on record as 103±3.9%. In addition, the Plasma concentration came out at 0 ng/mL in series [2] (SIPI-D00 5 mg/kg s.c., SD rats, time 0 h, parallels 1-4); 5167 ng/mL in series [2] (SIPI-D00 5 mg/kg s.c., SD rats, time 0.1 h, parallels 1-4, 5 mg/kg); 5836 ng/mL in series [2] (SIPI-D00 5 mg/kg s.c., SD rats, time 0.333 h, parallels 1-4, 5 mg/kg); 5242 ng/mL in series [2] (SIPI-D00 5 mg/kg s.c., SD rats, time 0.667 h, parallels 1-4, 5 mg/kg); 1185 ng/mL in series [2] (SIPI-D00 5 mg/kg s.c., SD rats, time 2 h, parallels 1-4, 5 mg/kg). In series [2] (SIPI-D00 5 mg/kg single subcutaneous injection, SD rats, Mean±SD), this molecule gave a Fa of 96.3±13.3%. For the same molecule, in series [2] (male, SD, rat, plasma, sc, 5 mg/kg, SIPI-D00 5 mg/kg s.c., SD rats, time 0.1 h, parallels 1-4, read-out: Plasma concentration), the level at 0.1 h came out at 3580 ng/mL. Moreover, the level at 0.167 h in series [2] (male, SD, rat, plasma, sc, 5 mg/kg, SIPI-D00 5 mg/kg s.c., SD rats, time 0.167 h, parallels 1-4, read-out: Plasma concentration) came out at 4720 ng/mL. Also, in series [2] (male, SD, rat, plasma, sc, 5 mg/kg, SIPI-D00 5 mg/kg s.c., SD rats, time 0.333 h, parallels 1-4, read-out: Plasma concentration), the level at 0.333 h was determined as 5890 ng/mL. In series [2] (male, SD, rat, plasma, sc, 5 mg/kg, SIPI-D00 5 mg/kg s.c., SD rats, time 0.667 h, parallels 1-4, read-out: Plasma concentration), the level at 0.667 h was 5260 ng/mL. In addition, the level at 1 h in series [2] (male, SD, rat, plasma, sc, 5 mg/kg, SIPI-D00 5 mg/kg s.c., SD rats, time 1 h, parallels 1-4, read-out: Plasma concentration) was 3940 ng/mL. Further, in series [2] (male, SD, rat, plasma, sc, 5 mg/kg, SIPI-D00 5 mg/kg s.c., SD rats, time 2 h, parallels 1-4, read-out: Plasma concentration), the level at 2 h came out at 1160 ng/mL. Further, the level at 3 h in series [2] (male, SD, rat, plasma, sc, 5 mg/kg, SIPI-D00 5 mg/kg s.c., SD rats, time 3 h, parallels 1-4, read-out: Plasma concentration) stood at 291 ng/mL. Moreover, the level at 4 h in series [2] (male, SD, rat, plasma, sc, 5 mg/kg, SIPI-D00 5 mg/kg s.c., SD rats, time 4 h, parallels 1-4, read-out: Plasma concentration) came to 53.5 ng/mL. Besides, the level at 6 h in series [2] (male, SD, rat, plasma, sc, 5 mg/kg, SIPI-D00 5 mg/kg s.c., SD rats, time 6 h, parallels 1-4, read-out: Plasma concentration) was 3.51 ng/mL. In series [2] (rat, in vivo, sc), the “AUC compared with SP” value is given as “significantly improved compared with SP”. This molecule also gave an AUC(0-t) in series [2] (rat, in vivo, sc, 5 mg/kg) of 8820 ± 1320 ng·h/mL. In series [2] (rat, in vivo, sc, 5 mg/kg), this molecule showed a Cmax of 5910 ± 447 ng/mL. The molecule further displayed an MRT last in series [2] (rat, in vivo, sc, 5 mg/kg) of 57.8 ± 1.14 min. Also, in series [2] (rat, in vivo, sc, 5 mg/kg), the time to peak (Tmax) stood at 12.5 ± 4.98 min. The same molecule had a half-life in series [2] (rat, in vivo, sc, 5 mg/kg) of 90 min.

Take `CC(=O)N[C@H]1C(OC[C@H](NC(=O)[C@@H](NC(=O)[C@H](Cc2ccc(O)cc2)NC(=O)[C@@H](NC(=O)[C@H](CCC(N)=O)NC(=O)CN)[C@@H](C)OC2O[C@H](CO)[C@@H](O)[C@H](O)[C@H]2NC(C)=O)[C@@H](C)O)C(=O)NCC(=O)O)O[C@H](CO)[C@@H](O)[C@@H]1O` (stereo partly drawn) [SIPI-G9, GQT(Glc)YTS(Glc)G] (H-GQT(X1)YTS(X1)G-OH): the “stability in whole blood” value in series [1] is given as “significantly higher than that of SP peptide”. The recovery in series [1] (setting [3]) was 100%; in series [1] (setting [4]) it was 98.8 ± 4.6%; in series [1] (setting [5]), 98.3 ± 2.9%; in series [1] (setting [6]) it was 96.3 ± 4.9%; in series [1] (setting [7]), 95.9 ± 1%; in series [1] (setting [8]), above 90%.
